Test results as given in the Deep4Chem optical property database.
Blank lines part the entries; values can stand above or below the compound they belong to.

Experiment: solvent given as SMILES

SMILES: CN1C(C(=O)Nc2ccccn2)=C(O)c2sccc2S1(=O)=O
absorption maximum (in C1COCCO1): 344 nm | absorption maximum (in CC#N): 355 nm | absorption maximum (in CCCCO): 350 nm | absorption maximum (in CCCO): 350 nm | absorption maximum (in CCO): 351 nm | absorption maximum (in CCOC(C)=O): 342 nm | absorption maximum (in CO): 354 nm

SMILES: O=C([O-])c1c(Cl)c(Cl)c(Cl)c(Cl)c1-c1c2cc(Cl)c(=O)c(Cl)c-2oc2c(Cl)c(O)c(Cl)cc12
absorption maximum (in O): 537 nm

SMILES: CCC1(CC)c2cc(/C=C/c3cc(Br)c(/C=C/c4ccc5c(c4)C(CC)(CC)c4cc(N6c7ccccc7Sc7ccccc76)ccc4-5)cc3Br)ccc2-c2ccc(N3c4ccccc4Sc4ccccc43)cc21
absorption maximum (in C1CCOC1): 439.91 nm | absorption maximum (in CC#N): 435.81 nm | absorption maximum (in CCCCCC): 433.42 nm | absorption maximum (in Cc1ccccc1): 439.91 nm | absorption maximum (in ClCCl): 426 nm

SMILES: COc1ccc2c(c1)c1cc(OC)ccc1n2-c1ccc(S(=O)(=O)c2ccc(-n3c4ccc(OC)cc4c4cc(OC)ccc43)cc2)cc1
absorption maximum (in Cc1ccccc1): 369.69 nm

SMILES: CCN1CCN(c2ccc(/N=N/c3cc([N+](=O)[O-])cc([N+](=O)[O-])c3)cc2)CC1
absorption maximum (in CCOC(C)=O): 454 nm

SMILES: c1ccc(-c2nc(-c3ccc(-c4ccc(-n5c6ccccc6c6ccccc65)cc4)cn3)oc2-c2ccccc2)cc1
absorption maximum (in C1CCOC1): 333 nm | absorption maximum (in C1COCCO1): 326 nm | absorption maximum (in CC#N): 330 nm | absorption maximum (in CC(C)=O): 333 nm | absorption maximum (in CC(C)OC(C)C): 334 nm | absorption maximum (in CCCCCC): 336 nm | absorption maximum (in CCCCOCCCC): 336 nm | absorption maximum (in CCN(CC)CC): 333 nm | absorption maximum (in CCOC(C)=O): 332 nm | absorption maximum (in CCOCC): 333 nm | absorption maximum (in Cc1ccccc1): 338 nm | absorption maximum (in c1ccccc1): 338 nm

SMILES: CN(C)c1ccc(/C=C/C(=C(C#N)C#N)c2ccc3c4c(cccc24)CC3)cc1
absorption maximum (in C1CCOC1): 488 nm | absorption maximum (in CC#N): 494 nm | absorption maximum (in CC(C)=O): 492 nm | absorption maximum (in CCOC(C)=O): 497 nm | absorption maximum (in CN(C)C=O): 505 nm | absorption maximum (in CO): 496 nm | absorption maximum (in Cc1ccccc1): 487 nm | absorption maximum (in ClC(Cl)Cl): 483 nm

SMILES: COc1ccc(-c2cc(B(c3c(C)cc(C)cc3C)c3c(C)cc(C)cc3C)c(-c3sc(-c4ccc(OC)cc4)cc3P(=O)(c3ccccc3)c3ccccc3)s2)cc1
absorption maximum (in CO): 402 nm

SMILES: Cc1ccc(/C=C/c2ccccc2-[n+]2cc([O-])on2)cc1
absorption maximum (in C1CCCCC1): 310 nm | absorption maximum (in CC#N): 304 nm

SMILES: c1ccc(/C(=C(\c2ccccc2)c2ccccc2-c2ccc(-c3ccccc3)cc2)c2ccccc2-c2ccc(-c3ccccc3)cc2)cc1
absorption maximum (in C1CCOC1): 280 nm

SMILES: COc1cc(C)c2c(c1C)OC(=O)c1c(C)c(Cl)c(O)c(Cl)c1O2
absorption maximum (in ClC(Cl)Cl): 342 nm

SMILES: COC(=O)c1cc2c(cc3ccc4cccc5ccc2c3c45)[nH]1
absorption maximum (in C1CCOC1): 400 nm

SMILES: COC(=O)C[C@H](Cc1c[nH]c2ccccc12)NC(=O)[C@H](CC(=O)N[C@@H](CC1=CCc2ccccc21)C(=O)OC)NC(=O)[C@H](Cc1c[nH]c2ccccc12)NC(=O)OC(C)(C)C
absorption maximum (in CC#N): 280 nm | absorption maximum (in CCOC(C)=O): 280 nm | absorption maximum (in CO): 280 nm

SMILES: c1cc2c3c(cccc3c1)-c1c-2c2ccccc2c2ccccc12
absorption maximum (in CCCCCCC): 397 nm

SMILES: C1=C(c2ccccc2)C=C(c2ccccc2)/C1=C/c1ccccc1
absorption maximum (in C1CCOC1): 438 nm

SMILES: CCCOc1ccc(/C=C/C=C/C=C/c2ccc([N+](=O)[O-])cc2)cc1
absorption maximum (in CC1CCCCC1): 414 nm | absorption maximum (in CC#N): 413 nm | absorption maximum (in Cc1ccccc1): 420 nm | absorption maximum (in ClCCl): 421 nm

SMILES: CN(C)c1ccc(C2=Nc3ccc4c(C(F)(F)F)cc(C(F)(F)F)nc4[n+]3[B-](F)(F)O2)cc1
absorption maximum (in ClCCl): 480 nm

SMILES: Cc1cc2nc3c(=O)n(C)c(=O)n(C)c3nc2cc1C
absorption maximum (in CC#N): 375 nm

SMILES: Cc1ccc2c(c1)c(C#N)c(C#N)c1cc(C)ccc12
absorption maximum (in ClC(Cl)Cl): 343 nm

SMILES: c1ccc(N(c2ccccc2)c2ccc3c4cccc5c(N(c6ccccc6)c6ccccc6)ccc(c6cccc2c63)c54)cc1
absorption maximum (in C1CCCCC1): 493 nm | absorption maximum (in C1CCOC1): 489 nm | absorption maximum (in CC#N): 483 nm | absorption maximum (in Cc1ccccc1): 492 nm | absorption maximum (in ClCCl): 490 nm

SMILES: O=c1oc2ccccc2c2cc(N3c4ccccc4Oc4ccccc43)ccc12
absorption maximum (in Cc1ccccc1): 395 nm

SMILES: CCN(CC)c1ccc2cc(-c3cn4cc5ccccc5cc4n3)c(=O)oc2c1
absorption maximum (in ClC(Cl)Cl): 434 nm

SMILES: N#C/C(=N/Nc1ccc(C#N)cc1)c1nc(-c2ccccc2)cs1
absorption maximum (in CC#N): 396 nm | absorption maximum (in CCO): 398 nm | absorption maximum (in CN(C)C=O): 477 nm | absorption maximum (in Cc1ccccc1): 401 nm | absorption maximum (in ClCCl): 399 nm

SMILES: COc1ccc(C2=Cc3cc4ccccc4cc3P2(=O)c2ccccc2)cc1 (stereo not given)
absorption maximum (in ClCCl): 395 nm

SMILES: N#C/C(=C\c1ccncc1)c1nc(-c2ccccc2)cs1
absorption maximum (in CC#N): 361 nm | absorption maximum (in CCO): 370 nm | absorption maximum (in CN(C)C=O): 368 nm | absorption maximum (in CS(C)=O): 371 nm | absorption maximum (in Cc1ccccc1): 372 nm | absorption maximum (in ClCCl): 418 nm

SMILES: CCOC(=O)c1c2c3c(ccc(Br)c3c3cc4c(cc13)[Si](C)(C)O[Si]4(C)C)N(C)C2=O
absorption maximum (in CC#N): 382 nm

Continued, values first:

absorption maximum (in O): 438 nm
SMILES: CC[n+]1c(-c2ccccc2)c2cc(NC(=O)N[C@H]3C[C@@H]([NH3+])[C@H](O)[C@@H](O)[C@@H]3O)ccc2c2ccc(NC(=O)N[C@@H]3C[C@H]([NH3+])[C@@H](O)[C@@H](O)[C@H]3O)cc21

absorption maximum (in ClCCl): 542 nm
SMILES: Cc1cccc2[n+]1[B-](c1ccccc1)(c1ccccc1)c1cccc3c4c5c(cccc5c-2c13)[B-](c1ccccc1)(c1ccccc1)[n+]1c(C)cccc1-4

absorption maximum (in CC#N): 427 nm
SMILES: CN(C)C1=Nc2cccc3cccc1c23

absorption maximum (in C1CCCCC1): 295 nm
SMILES: C=Cc1cccc(OC)c1

absorption maximum (in ClCCl): 323 nm
SMILES: Cc1cc2c3ccccc3[nH]c2c2[nH]c3ccccc3c12

absorption maximum (in c1ccccc1): 370 nm
SMILES: Cc1nc2c(ccc3ccc(O)cc32)oc1=O

absorption maximum (in C1CCOC1): 460 nm | absorption maximum (in CC#N): 462 nm | absorption maximum (in CCO): 464 nm | absorption maximum (in CCOC(C)=O): 457 nm | absorption maximum (in CN(C)C=O): 467 nm | absorption maximum (in ClCCl): 471 nm | absorption maximum (in c1ccccc1): 458 nm
SMILES: CCCCC(CC)Cn1c2ccc(C(=C(C#N)C#N)c3ccccc3)cc2c2c(-c3ccc(Br)cc3)c3c(c(-c4ccc(Br)cc4)c21)c1cc(C(=C(C#N)C#N)c2ccccc2)ccc1n3CC(CC)CCCC (stereo not given)

absorption maximum (in ClC(Cl)Cl): 326 nm
SMILES: CCCCn1c2ccccc2c2ccc3c4cc(-c5ccc(C(F)(F)F)cc5)ccc4n(CCCC)c3c21

absorption maximum (in C1CCCCC1): 314 nm
SMILES: CCCC1(CCC)c2ccccc2-c2ccc(-c3ccc(C(C)(C)C)cc3)cc21

absorption maximum (in O): 660 nm
SMILES: COc1ccc2c(c1)CCC1=C(c3ccccc3)C3=C(c4ccc5cccc(O)c5n4)c4c(-c5ccccc5)c5c(n4[B-](F)(F)[N+]3=C12)-c1ccc(OC)cc1CC5

absorption maximum (in ClC(Cl)Cl): 627 nm
SMILES: F[B-]1(F)n2cccc2C(c2ccccc2)=C2C=CC(c3cccc(OC4=[N+]5C(=C(c6ccccc6)c6cc(Br)c(-c7ccc[nH]7)n6[B-]5(F)F)C=C4Br)c3)=[N+]21

absorption maximum (in ClCCl): 412 nm
SMILES: CCCCCCc1cc2c(s1)-c1cc3c(cc1NB2c1ccccc1)-c1sc(CCCCCC)cc1B(c1ccccc1)N3

absorption maximum (in ClC(Cl)Cl): 386 nm
SMILES: CCCCC1(c2ccccc2)Nc2ccccc2N=C1c1ccccc1 (stereo not given)

absorption maximum (in C1COCCO1): 481 nm | absorption maximum (in CC#N): 488 nm | absorption maximum (in ClCCl): 494 nm
SMILES: CCCCN(CCCC)c1ccc(/C=C/c2ccc3nc(/C=C/c4ccc(N(C)C)cc4)c(=O)n(CCC)c3c2)cc1
